Experimental data published in article PMC9265729, “A Genetic Toxicology Study of the Rapid Detection of Nitrosamine Compounds by the rpsL Gene Mutation Assay” (Foods, 2022).
Where “and” joins values, the source holds several entries; their conditions need not be identical. Equal entries are not always repeated.

Experiments:
rpsL gene [1] = experiment: rpsL gene mutation rate at the cellular level (E. coli MF101 + pMOL21 cultured with mutagen, Amp/Str plate selection); conditions: for Mutation Rate of rpsL (mean ± SD): E. coli MF101 + pMOL21, mean of 4 experiments; for Mutation Rate of rpsL (single experiment): E. coli MF101 + pMOL21, single replicate; for genotoxicity / mutagenicity in words: NDEA, NDPA at 10 ppm, EB at lower concentrations
Experimental: The mutagenicity detection of nitrosamine compounds was carried out using the rpsL gene on plasmid pMOL21 as a selectable marker. The ribosomal protein S12 encoded by the rpsL gene can form a complex with streptomycin and enhance the ability of streptomycin to bind to 16 S rRNA, thereby preventing the initiation of […]. When the rpsL gene is mutated, the interaction between 16 S rRNA and streptomycin is disrupted, resulting in cell resistance to streptomycin.
We adopted Escherichia coli MF101, whose rpsL gene is mutated, so this strain has streptomycin resistance. The plasmid pMOL21 contains ampicillin as a selection marker and the correct rpsL gene. […] For specific information on strains and plasmids, please refer to [14].
E. coli MF101 + pMOL21 were cultured with different concentrations (10 ppm, 100 ppm, or 1000 ppm) of NDEA or NDPA. Ten hours after growth, the strains were collected and spread on plates containing ampicillin (Amp^+, 50 μg/mL) to determine the total number of transformed cells and spread on plates containing ampicillin and streptomycin (Amp^+, Str^+, 50 μg/mL) to determine the number of colonies with rpsL gene mutations. The mutation rate is the ratio of the number of mutant colonies to the total number of colonies. […] The experimental data and images were statistically analyzed by Origin2018 software.

rpsL gene [2] = experiment: rpsL gene mutation rate in the RCA reaction system (phi29 DNA polymerase, mutagen added to the amplification reaction); format: biochemical, Escherichia coli; conditions: for Mutation Rate of rpsL in the RCA reaction (mean ± SD): mean of 4 experiments; for Mutation Rate of rpsL in the RCA reaction (single experiment): single replicate
Experimental: Heat denaturation of samples and annealing reaction system of primers and plasmids: 1 μL of 10 × phi29 DNA polymerase reaction buffer, 2.5 μL of 100 μM random primers, 1 μL of plasmid pMOL21 to be amplified, and 4.3 μL of ddH2O. The above system was heated at 95 °C for 3 min and then placed on ice for 15 min.
Amplification reaction system: 10 mM dNTP 0.5 μL, 100 × BSA 0.2 μL, phi29 DNA polymerase 0.5 μL to the above reaction solution (nitrosamine compounds or EB are added to the amplification reaction system), and then incubated at 30 °C overnight.
Heat-inactivated phi29 DNA polymerase: heat at 65 °C for 10 min.
We then determined the mutation rate of mutagen-induced rpsL gene mutations in the RCA system. In this experiment, we adopted the method of directly adding a mutagen to the RCA amplification reaction solution to provide a direct mutagenic environment for the amplification of the rpsL gene. This method avoids the possibility of affecting the mutagenicity of NDEA, NDPA, or EB during thermal denaturation.

rpsL gene [3] = experiment: rpsL gene mutation rate in the PCR amplification system (Pfu DNA polymerase, mutagen added directly to the PCR system); format: biochemical, Escherichia coli; conditions: for Mutation Rate of rpsL in PCR (mean ± SD): mean of 4 experiments; for Mutation Rate of rpsL in PCR (single experiment): single replicate
Experimental: The PCR system was as follows: 10 × PCR buffer (Mg^2+) 5 μL, dNTP 2 μL, pMOL21 plasmid template 1 μL, upstream and downstream primers 1 μL, Pfu DNA polymerase 0.5 μL, ddH2O supplemented to […] (nitrosamine compounds were directly added to the PCR system).
The PCR program was as follows: predenaturation at 95 °C for 5 min, denaturation at 94 °C for 30 s, annealing at 55 °C for 30 s, extension at 72 °C for 120 s, 25 cycles, full extension at 72 °C for 10 min, and storage at 16 °C.
The PCR products were recovered and ligated with restriction enzymes (MscI, BamH1), transformed into MF101 strains, plated on ampicillin-containing plates to determine the total number of transformed cells, and plated on ampicillin- and streptomycin-containing plates to identify rpsL gene-mutated colonies.
We measured the mutation rate of mutagen-induced rpsL gene mutations in the PCR system. The mutagen was added directly to the PCR system to determine the mutation rate of the rpsL gene during DNA amplification.

[4] = 100 ppm mutagen in RCA reaction
[5] = 1000 ppm mutagen in RCA reaction

| Compound | Mutation Rate of rpsL (mean ± SD) (rpsL gene [1]; 10 ppm mutagen) | Mutation Rate of rpsL (single experiment) (rpsL gene [1]; 10 ppm mutagen) | Mutation Rate of rpsL (mean ± SD) (rpsL gene [1]; 100 ppm mutagen) | Mutation Rate of rpsL (single experiment) (rpsL gene [1]; 100 ppm mutagen) | Mutation Rate of rpsL (mean ± SD) (rpsL gene [1]; 1000 ppm mutagen) | Mutation Rate of rpsL (single experiment) (rpsL gene [1]; 1000 ppm mutagen) | genotoxicity / mutagenicity in words (rpsL gene [1]) | Mutation Rate of rpsL in the RCA reaction (mean ± SD) (rpsL gene [2]; 10 ppm mutagen in RCA reaction) | Mutation Rate of rpsL in the RCA reaction (single experiment) (rpsL gene [2]; 10 ppm mutagen in RCA reaction) | Mutation Rate of rpsL in the RCA reaction (mean ± SD) (rpsL gene [2]; [4]) | Mutation Rate of rpsL in the RCA reaction (single experiment) (rpsL gene [2]; [4]) | Mutation Rate of rpsL in the RCA reaction (mean ± SD) (rpsL gene [2]; [5]) | Mutation Rate of rpsL in the RCA reaction (single experiment) (rpsL gene [2]; [5]) | Mutation Rate of rpsL in PCR (mean ± SD) (rpsL gene [3]; 10 ppm mutagen in PCR system) | Mutation Rate of rpsL in PCR (single experiment) (rpsL gene [3]; 10 ppm mutagen in PCR system) | Mutation Rate of rpsL in PCR (mean ± SD) (rpsL gene [3]; 100 ppm mutagen in PCR system) | Mutation Rate of rpsL in PCR (single experiment) (rpsL gene [3]; 100 ppm mutagen in PCR system) | Mutation Rate of rpsL in PCR (mean ± SD) (rpsL gene [3]; 1000 ppm mutagen in PCR system) | Mutation Rate of rpsL in PCR (single experiment) (rpsL gene [3]; 1000 ppm mutagen in PCR system) |
| --- | --- | --- | --- | --- | --- | --- | --- | --- | --- | --- | --- | --- | --- | --- | --- | --- | --- | --- | --- |
| CCCN(CCC)N=O [NDPA, N-dipropylnitrosamine] | 2.67 10^−6 and 2.67 ± 0.909 10^−6 | 2.34 10^−6 and 1.70 10^−6 and 2.80 10^−6 and 3.86 10^−6 | 4.75 10^−6 and 4.75 ± 1.417 10^−6 | 5.72 10^−6 and 2.66 10^−6 and 5.09 10^−6 and 5.53 10^−6 | 5.14 10^−6 and 5.14 ± 1.433 10^−6 | 7.05 10^−6 and 4.20 10^−6 and 5.41 10^−6 and 3.89 10^−6 | high genotoxicity | 2.98 10^−6 and 2.98 ± 0.585 10^−6 | 2.18 10^−6 and 3.59 10^−6 and 3.05 10^−6 and 3.10 10^−6 | 5.59 10^−6 and 5.59 ± 2.287 10^−6 | 4.90 10^−6 and 3.85 10^−6 and 8.96 10^−6 and 4.67 10^−6 | 6.2 10^−6 and 6.20 ± 1.110 10^−6 | 7.78 10^−6 and 5.18 10^−6 and 5.96 10^−6 and 5.87 10^−6 | 2.93 10^−6 and 2.93 ± 1.430 10^−6 | 1.83 10^−6 and 1.92 10^−6 and 3.05 10^−6 and 4.91 10^−6 | 4.98 10^−6 and 4.98 ± 1.330 10^−6 | 6.16 10^−6 and 3.08 10^−6 and 5.45 10^−6 and 5.21 10^−6 | 6.85 10^−6 and 6.85 ± 1.316 10^−6 | 7.72 10^−6 and 8.12 10^−6 and 6.32 10^−6 and 5.25 10^−6 |
| CC[n+]1c(-c2ccccc2)c2cc(N)ccc2c2ccc(N)cc21 [EB, ethidium bromide, reference compound] | 3.71 10^−6 and 3.71 ± 0.502 10^−6 | 3.65 10^−6 and 4.38 10^−6 and 3.64 10^−6 and 3.16 10^−6 | 5.78 10^−6 and 5.78 ± 0.728 10^−6 | 6.50 10^−6 and 6.05 10^−6 and 4.78 10^−6 and 5.79 10^−6 | 7.87 10^−6 and 7.87 ± 1.842 10^−6 | 9.82 10^−6 and 6.71 10^−6 and 5.94 10^−6 and 9.01 10^−6 | strong mutagenicity | 3.81 10^−6 and 3.81 ± 0.335 10^−6 | 3.62 10^−6 and 4.31 10^−6 and 3.69 10^−6 | 6.38 10^−6 and 6.38 ± 0.915 10^−6 | 7.26 10^−6 and 6.66 10^−6 and 5.10 10^−6 and 6.49 10^−6 | 7.35 10^−6 and 7.35 ± 2.615 10^−6 | 6.86 10^−6 and 4.07 10^−6 and 10.34 10^−6 and 8.11 10^−6 | 4.06 10^−6 and 4.06 ± 0.471 10^−6 | 4.23 10^−6 and 4.47 10^−6 and 4.15 10^−6 and 3.38 10^−6 | 6.01 10^−6 and 6.01 ± 1.319 10^−6 | 5.99 10^−6 and 7.69 10^−6 and 4.47 10^−6 and 5.88 10^−6 | 10.35 10^−6 and 10.35 ± 1.143 10^−6 | 11.98 10^−6 and 9.32 10^−6 and 10.15 10^−6 and 9.94 10^−6 |
| CCN(CC)N=O [NDEA, N-diethylnitrosamine] | 2.42 10^−6 and 2.42 ± 0.717 10^−6 | 1.44 10^−6 and 2.34 10^−6 and 2.95 10^−6 and 2.96 10^−6 | 3.76 10^−6 and 3.76 ± 0.852 10^−6 | 3.32 10^−6 and 2.81 10^−6 and 4.23 10^−6 and 4.69 10^−6 | 4.82 10^−6 and 4.82 ± 1.738 10^−6 | 2.89 10^−6 and 3.85 10^−6 and 6.02 10^−6 and 6.54 10^−6 | high genotoxicity | 2.49 10^−6 and 2.49 ± 0.692 10^−6 | 1.79 10^−6 and 2.02 10^−6 and 3.20 10^−6 and 2.96 10^−6 | 3.62 10^−6 and 3.62 ± 0.316 10^−6 | 3.47 10^−6 and 3.38 10^−6 and 3.55 10^−6 and 4.08 10^−6 | 5.54 10^−6 and 5.54 ± 2.444 10^−6 | 3.14 10^−6 and 3.96 10^−6 and 6.59 10^−6 and 8.46 10^−6 | 2.83 10^−6 and 2.83 ± 1.197 10^−6 | 1.28 10^−6 and 2.65 10^−6 and 4.11 10^−6 and 3.30 10^−6 | 4.51 10^−6 and 4.51 ± 1.314 10^−6 | 3.70 10^−6 and 3.09 10^−6 and 5.47 10^−6 and 5.77 10^−6 | 5.02 10^−6 and 5.02 ± 1.890 10^−6 | 3.16 10^−6 and 3.68 10^−6 and 6.23 10^−6 and 7.03 10^−6 |
